Molecular target: T1, human PTH1 receptor (Homo sapiens, UniProt Q03431)
T1 sequence (Q03431 27-593): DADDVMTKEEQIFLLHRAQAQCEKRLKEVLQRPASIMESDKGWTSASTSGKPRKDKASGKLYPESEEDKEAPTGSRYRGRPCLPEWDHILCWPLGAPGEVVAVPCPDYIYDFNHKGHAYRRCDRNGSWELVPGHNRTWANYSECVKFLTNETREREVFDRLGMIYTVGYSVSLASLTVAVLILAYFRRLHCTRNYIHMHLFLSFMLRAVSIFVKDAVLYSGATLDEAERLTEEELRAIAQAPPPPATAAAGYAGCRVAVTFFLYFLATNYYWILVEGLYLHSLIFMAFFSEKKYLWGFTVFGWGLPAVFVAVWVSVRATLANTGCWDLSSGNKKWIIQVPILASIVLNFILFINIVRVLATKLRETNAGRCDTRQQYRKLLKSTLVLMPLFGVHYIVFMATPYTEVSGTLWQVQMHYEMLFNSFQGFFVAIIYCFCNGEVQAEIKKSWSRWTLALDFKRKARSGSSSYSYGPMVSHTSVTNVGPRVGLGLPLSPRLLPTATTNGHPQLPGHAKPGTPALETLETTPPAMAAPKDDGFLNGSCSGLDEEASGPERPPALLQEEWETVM
Test: In vitro cAMP signal activity in HKRK-B7 cells (LLC-PK1 cells overexpressing the human PTH1 receptor)
Format: cell-based
Conditions: HKRK-B7 cells; compound at 1×10^−3 M; cAMP produced as percentage of that produced by hPTH(1-34) at 100 nM

| Structure (SMILES) | cAMP production activity (%) |
| --- | --- |
| CCCCCCCCCC1=NC2(CCN(S(=O)(=O)/C=C/c3c(C)cc(OCCC(O)CO)cc3C)CC2)C(=O)N1 (centres unmarked) [Compound 627, 8-{(E)-2-[4-(3,4-Dihydroxy-butoxy)-2,6-dimethyl-phenyl]-ethenesulfonyl}-2-nonyl-1,3,8-triaza-spiro[4.5]dec-1-en-4-one] | 5.3% |
| Cc1cc(N(C)C(N)=O)cc(C)c1/C=C/S(=O)(=O)N1CCC2(CC1)N=C(CCCCCCCCCF)NC2=O [Compound 1325, 1-(4-{(E)-2-[2-(9-Fluoro-nonyl)-4-oxo-1,3,8-triaza-spiro[4.5]dec-1-ene-8-sulfonyl]-vinyl}-3,5-dimethyl-phenyl)-1-methyl-urea] | 113% |
| CC(C)(C)CC(=O)N1CCCC(C2=NC3(CCN(S(=O)(=O)c4cccc(Cl)c4)CC3)C(=O)N2)C1 (centres unmarked) [Compound 423, 8-(3-Chloro-benzenesulfonyl)-2-[1-(3,3-dimethyl-butyryl)-piperidin-3-yl]-1,3,8-triaza-spiro[4.5]dec-1-en-4-one] | 42% |
| Cc1cc(C(=O)NN)cc(C)c1CCS(=O)(=O)N1CCC2(CC1)N=C(C1CCC(CCC(F)(F)F)CC1)NC2=O (centres unmarked) [Compound 1385, 3,5-dimethyl-4-(2-{4-oxo-2-[4-(3,3,3-trifluoro-propyl)-cyclohexyl]-1,3,8-triaza-spiro[4.5]dec-1-ene-8-sulfonyl}-ethyl)-benzoic acid hydrazide] | 92% |
| Cc1cc(C(=O)N(C)C)ccc1CCS(=O)(=O)N1CCC2(CC1)N=C(c1ccc(OC(F)(F)F)cc1)NC2=O [Compound 106, 3,N,N-trimethyl-4-{2-[4-oxo-2-(4-trifluoromethoxy-phenyl)-1,3,8-triaza-spiro[4.5]dec-1-ene-8-sulfonyl]-ethyl}-benzamide] | 94% |
| Cc1cc(N2NCCC2=O)ccc1CCS(=O)(=O)N1CCC2(CC1)N=C([C@H]1CC[C@H](C)CC1)NC2=O [Compound 834, 2-(4-methyl-cyclohexyl)-8-{2-[2-methyl-4-(5-oxo-pyrazolidin-1-yl)-phenyl]-ethanesulfonyl}-1,3,8-triaza-spiro[4.5]dec-1-en-4-one] | 76% |
| CCCc1ccc(-c2cccc(C3=NC4(CCN(S(=O)(=O)CCc5c(C)cc(N(C)C(N)=O)cc5C)CC4)C(=O)N3)c2)cc1 [Compound 1152, 1-(3,5-Dimethyl-4-{2-[4-oxo-2-(4′-propyl-biphenyl-3-yl)-1,3,8-triaza-spiro[4.5]dec-1-ene-8-sulfonyl]-ethyl}-phenyl)-1-methyl-urea] | 0.8% |
| Cc1cc(CNC(N)=O)cc(C)c1CCS(=O)(=O)N1CCC2(CC1)N=C(C1CCC(C)CC1)NC2=O (centres unmarked) [Compound 1314, (3,5-dimethyl-4-{2-[2-(4-methyl-cyclohexyl)-4-oxo-1,3,8-triaza-spiro[4.5]dec-1-ene-8-sulfonyl]-ethyl}-benzyl)-urea] | 78% |
| Cc1cc(C(=O)N2CCC(C)(O)CC2)cc(C)c1/C=C/S(=O)(=O)N1CCC2(CC1)N=C(c1ccc(OCCCC(F)(F)C(F)(F)F)c(C(F)(F)F)c1)NC2=O [Compound 1202, 8-{(E)-2-[4-(4-hydroxy-4-methyl-piperidine-1-carbonyl)-2,6-dimethyl-phenyl]-ethenesulfonyl}-2-[4-(4,4,5,5,5-pentafluoro-pentyloxy)-3-trifluoromethyl-phenyl]-1,3,8-triaza-spiro[4.5]dec-1-en-4-one] | 91% |
| Cc1cc(C(=O)N(C)C)ccc1-c1ccc(S(=O)(=O)N2CCC3(CC2)N=C(c2ccc(F)c(C(F)(F)F)c2)NC3=O)s1 [Compound 333, 4-{5-[2-(4-fluoro-3-trifluoromethyl-phenyl)-4-oxo-1,3,8-triaza-spiro[4.5]dec-1-ene-8-sulfonyl]-thiophen-2-yl}-3,N,N-trimethyl-benzamide] | 87% |
| CC(=O)N(CCO)c1ccc(/C=C/S(=O)(=O)N2CCC3(CC2)N=C(c2cccc(C(F)(F)F)c2F)NC3=O)c(C)c1 [Compound 259, N-(4-{(E)-2-[2-(2-Fluoro-3-trifluoromethyl-phenyl)-4-oxo-1,3,8-triaza-spiro[4.5]dec-1-ene-8-sulfonyl]-vinyl}-3-methyl-phenyl)-N-(2-hydroxy-ethyl)-acetamide] | 67% |
| O=C1NC(C2CCCCC2)=NC12CCCN(S(=O)(=O)c1cccc(Cl)c1)C2 (centres unmarked) [Compound 71, 7-(3-chloro-benzenesulfonyl)-2-cyclohexyl-1,3,7-triaza-spiro[4.5]dec-1-en-4-one] | 3.7% |
| Cc1cc(C(=O)N(C)C)ccc1CCS(=O)(=O)N1CCC2(CC1)N=C(CC1CCCCC1)NC2=O [Compound 103, 4-[2-(2-cyclohexylmethyl-4-oxo-1,3,8-triaza-spiro[4.5]dec-1-ene-8-sulfonyl)-ethyl]-3,N,N-trimethyl-benzamide] | 80% |
| CCOC(=O)CCCCCCCCCCCC1=NC2(CCN(S(=O)(=O)/C=C/c3c(C)cc(N(C)C(N)=O)cc3C)CC2)C(=O)N1 [Compound 1132, 12-(8-{(E)-2-[2,6-dimethyl-4-(1-methyl-ureido)-phenyl]-ethenesulfonyl}-4-oxo-1,3,8-triaza-spiro[4.5]dec-1-en-2-yl)-dodecanoic acid ethyl ester] | 80% |
| Cc1cc(CN(C)C(N)=O)cc(C)c1CCS(=O)(=O)N1CCC2(CC1)N=C(C1CCC(CCC(F)(F)F)CC1)NC2=O (centres unmarked) [Compound 1389, 1-[3,5-dimethyl-4-(2-{4-oxo-2-[4-(3,3,3-trifluoro-propyl)-cyclohexyl]-1,3,8-triaza-spiro[4.5]dec-1-ene-8-sulfonyl}-ethyl)-benzyl]-1-methyl-urea] | 67% |
| Cc1cc(S(=O)(=O)NC2CCC(O)CC2)ccc1CCS(=O)(=O)N1CCC2(CC1)N=C(c1cccc(C(F)(F)F)c1)NC2=O (centres unmarked) [Compound 853, N-(4-hydroxy-cyclohexyl)-3-methyl-4-{2-[4-oxo-2-(3-trifluoromethyl-phenyl)-1,3,8-triaza-spiro[4.5]dec-1-ene-8-sulfonyl]-ethyl}-benzenesulfonamide] | 63% |
| Cc1cc(OC[C@H](O)CO)cc(C)c1/C=C/S(=O)(=O)N1CCC2(CC1)N=C(c1cccc(OCCCC(F)(F)C(F)(F)F)c1)NC2=O [Compound 1103, 8-{(E)-2-[4-((R)-2,3-Dihydroxy-propoxy)-2,6-dimethyl-phenyl]-ethenesulfonyl}-2-[3-(4,4,5,5,5-pentafluoro-pentyloxy)-phenyl]-1,3,8-triaza-spiro[4.5]dec-1-en-4-one] | 5.4% |
| Cc1cc(C(=O)N2CCC(O)CC2)cc(C)c1/C=C/S(=O)(=O)N1CCC2(CC1)N=C(c1ccc(F)c(OCCCC(F)(F)C(F)(F)F)c1)NC2=O [Compound 1091, 2-[4-Fluoro-3-(4,4,5,5,5-pentafluoro-pentyloxy)-phenyl]-8-{(E)-2-[4-(4-hydroxy-piperidine-1-carbonyl)-2,6-dimethyl-phenyl]-ethenesulfonyl}-1,3,8-triaza-spiro[4.5]dec-1-en-4-one] | 118% |
| O=C(CNc1ccc(CCS(=O)(=O)N2CCC3(CC2)N=C(C2CCCCC2)NC3=O)c(C(F)(F)F)c1)NCCCCO [Compound 660, 2-{4-[2-(2-cyclohexyl-4-oxo-1,3,8-triaza-spiro[4.5]dec-1-ene-8-sulfonyl)-ethyl]-3-trifluoromethyl-phenylamino}-N-(4-hydroxy-butyl)-acetamide] | 60% |
| CCCCCCCCCC1=NC2(CCN(S(=O)(=O)/C=C/c3c(C)cc(N(CCO)C(C)=O)cc3C)CC2)C(=O)N1 [Compound 701, N-{3,5-dimethyl-4-[(E)-2-(2-nonyl-4-oxo-1,3,8-triaza-spiro[4.5]dec-1-ene-8-sulfonyl)-vinyl]-phenyl}-N-(2-hydroxy-ethyl)-acetamide] | 140% |
| Cc1cc(C(=O)N2CCC(C)(O)CC2)cc(C)c1/C=C/[S@TB4](=O)(=O)N1CCC2(CC1)N=C(c1ccc(OC(F)(F)F)c(F)c1)NC2=O [Compound 1094, 2-(3-fluoro-4-trifluoromethoxy-phenyl)-8-{(E)-2-[4-(4-hydroxy-4-methyl-piperidine-1-carbonyl)-2,6-dimethyl-phenyl]-ethenesulfonyl}-1,3,8-triaza-spiro[4.5]dec-1-en-4-one] | 100% |
| Cc1cc(N(C)C(N)=O)cc(C)c1CCS(=O)(=O)N1CCC2(CC1)N=C(CCCCCCCCCCCO)NC2=O [Compound 1361, 1-(4-{2-[2-(11-hydroxy-undecyl)-4-oxo-1,3,8-triaza-spiro[4.5]dec-1-ene-8-sulfonyl]-ethyl}-3,5-dimethyl-phenyl)-1-methyl-urea] | 104% |
| Cc1cc(N(C)C(N)=O)cc(C)c1CCS(=O)(=O)N1CCC2(CC1)N=C(CCCCCCCCCCCC(N)=O)NC2=O [Compound 1174, 12-(8-{2-[2,6-dimethyl-4-(1-methyl-ureido)-phenyl]-ethanesulfonyl}-4-oxo-1,3,8-triaza-spiro[4.5]dec-1-en-2-yl)-dodecanoic acid amide] | 91% |

From patent US9169254B2, “Spiroimidazolone derivative” (Chugai Seiyaku Kabushiki Kaisha, priority 2009, dated 2015)
